{"source": "patent US5374636A", "about": "“2,3-trans-disubstituted tropane compounds which have useful pharmaceutical utility” (NeuroSearch A/S, priority 1992, dated 1994)", "key": {"[1]": {"system": "excitatory Iocomotor and rearing responses", "test": "Classification of behavioural excitatory locomotor and rearing responses (side effect)", "type": "in vivo, rat (male SPF wistar)", "procedure": "Male SPF wistar rats weighing 200-250 g were used for the gross behavioural studies. All rats were transferred the day before the experiments to individual cages made of wire netting (floor area 21×27 cm, height 16 cm) at a room temperature of 21°-23° C. […] The behavioural elements here classified as rearing (i.e. standing up on the hindlegs) and Iocomotor activities (i.e. forward running activities) were registered, and the maximum peak effects were classified according to the following rating scale:\n0=non-existent or very infrequent\n++=moderate in intensity and frequency\n+++=very strong, continuous and intense"}, "[2]": {"system": "abnormal stereotyped behaviour", "test": "Classification of the abnormal stereotyped behaviour (side effect)", "type": "in vivo, rat", "from_the_text": "Classification of the abnormal stereotyped behaviour.\nBackward locomotion may occasionally be observed.\n+=only stereotyped sniffing\n++=stereotyped sniffing and episodic licking\n+++=Continuous licking and/or biting gnawing"}, "[3]": {"system": "reuptake of dopamine in synaptosomes of rat forebmin", "test": "Inhibition of reuptake of dopamine in synaptosomes of rat forebrain (3H-dopamine uptake)", "type": "biochemical, rat (male Wistar)", "settings": "for IC50: rat forebrain synaptosomes, 3H-dopamine 1×10^-9 M, 10 min at 37° C., read-out: Dopamine reuptake inhibiting activity (IC50)", "procedure": "Fresh whole forebmin (at 0°-4° C.) from male Wistar rats (150-200 g) is homogenized in a glass homogenizer with a teflon pestle in 20×volumes 0.32M sucrose. The homogenate is centrifuged at 1000×g (~2900 rpm) for 10 min. The pellet is discarded and the supernatant is used for uptake assays.\nThe samples are thoroughly mixed and incubated 10 min at 37° C. followed by 2 min at 0° C. After incubation the samples are poured directly onto Whatman GF/C glass fibre filters under suction and immediately washed with 2×5 ml ice-cold 0.9% saline (NaCI) buffer. To the filter is added 3 ml of scintillation fluid, and the amount of radioactivity on the filters is determined by conventional liquid scintillation counting."}, "[4]": {"system": "serotonine (5-hydroxythryptamine, 5-HT) reuptake", "test": "Serotonin (5-HT) reuptake inhibition", "type": "biochemical", "settings": "in combination with dopamine reuptake inhibition"}}, "data": [{"smiles": "COC(=O)[C@@H]1[C@@H](c2ccc(F)cc2)C[C@@H]2CC[C@H]1N2C", "note": "[trans isomer of Win 35,428, (1R,2R,3S)-2-carbomethoxy-3-(4-fluorophenyl)tropane]", "values": [{"measurement": "side effects as measured by excitatory locomotor activity and rearing responses as well as abnormal stereotyped behaviour", "setting": "[1]; every relevant dosing level tested", "value": "essentially or totally devoid of side effects"}]}, {"smiles": "COC(=O)[C@@H]1[C@@H](c2ccc(Cl)c(Cl)c2)C[C@@H]2CC[C@H]1N2C", "note": "[(1R,2R,3S)-2-carbomethoxy-3-(3,4-dichlorophenyl)tropane]", "values": [{"measurement": "Activity (excitatory locomotor and rearing responses, maximum peak effect)", "setting": "[1]; 50 mg/kg i.p.", "value": "+"}, {"measurement": "Activity (high intensity abnormal stereotyped behaviour)", "setting": "[2]; 50 mg/kg i.p.", "value": "+++"}, {"measurement": "IC50", "setting": "[3]", "value": 16, "unit": "nM"}]}, {"smiles": "CN1[C@H]2CC[C@@H]1[C@H](COc1ccc(Cl)cc1)[C@@H](c1ccc(F)cc1)C2.Cl", "note": "[(1R,2R,3S)-2-(4-Chlorophenoxy-methyl)-3-(4-fluorophenyl)tropane, hydrochloride]", "values": [{"measurement": "Activity (high intensity abnormal stereotyped behaviour)", "setting": "[2]; 50 mg/kg i.p.", "value": 0}, {"measurement": "dopamine reuptake inhibiting activity (in words)", "setting": "[3]", "value": "potent dopamine reuptake inhibiting activity"}, {"measurement": "IC50", "setting": "[3]", "value": 390, "unit": "nM"}, {"measurement": "serotonine (5-HT) reuptake inhibiting activity", "setting": "[4]", "value": "very potent serotonine (5-hydroxythryptamine, 5-HT) reuptake inhibiting activity"}]}, {"smiles": "COC(=O)[C@@H]1[C@@H](c2ccc3ccccc3c2)C[C@@H]2CC[C@H]1N2C", "note": "[(1R,2R,3S)-2-carbomethoxy-3-(2-naphthyl)tropane]", "values": [{"measurement": "Activity (high intensity abnormal stereotyped behaviour)", "setting": "[2]; 25 mg/kg i.p.", "value": 0}, {"measurement": "IC50", "setting": "[3]", "value": 100, "unit": "nM"}]}]}
